Read-outs that look alike come from different tables or passages of the source.
Columns and labels:
HepG2 [1] = experiment: Intracellular metabolisation of triazenes in HepG2 cell culture (Experiment 1); type: in vitro ADME; details: HepG2, 100nmol/ml, 100% FCS, binnen 6 Stunden
Experimental: Es wird gezeigt, dass Verbindungen nach Beispiel 1 schneller und in größerer Menge intrazellulär metabolisiert werden als die als Vergleichssubstanzen eingesetzten Verbindungen nach Präparat 2 und 5 (entsprechend Verbindungen nach Präparat 2 und Beispiel 2a jeweils der WO 2009/004060).
Die getesteten Verbindungen wurden wie folgt gelöst: • Erfindungsgemäße Verbindung: • Beispiel 1 : in 20 mg/ml DMSO
(§1) Vergleichssubstanzen: • Präparat 2: in 50mg/ml DMSO, • Präparat 5: in 50mg/ml Wasser.
Alle drei Substanzen wurden äquimolar in einer Dosis von 100nmol/ml auf 1 x 10^7 HepG2 bzw. MCF-7-Zellen gegeben. Als Zellkulturmedium wurde 100% fötales Kälberserum (FCS) verwendet. Für den Versuch wurde der Gehalt aus Ausgangsprodukt und Metaboliten im Zellüberstand nach 1, 3 und 6 (HepG2) bzw. 1,3 und 20 Stunden (MCF-7) Inkubationszeit ermittelt. Alle drei Substanzen zeigten in Kontrollversuchen mit 100% FCS nach 40 Stunden metabolische Stabilität.

HepG2 [2] = experiment: Intracellular uptake of triazenes in HepG2 cells (Experiment 2); type: in vitro ADME; details: HepG2, 50.000ng/ml, 10.000ng/ml O6-Benzylguanin, 2, 4 und 20 Stunden
Experimental: (§2) Es wird gezeigt, dass Verbindungen nach Beispiel 1 schneller und in größerer Menge intrazellulär aufgenommen werden als die als Vergleichssubstanzen eingesetzten Verbindungen nach Präparat 2 und 5 (entsprechend Verbindungen nach Präparat 2 und Beispiel 2a jeweils der WO 2009/004060).
(§3) Die getesteten Verbindungen wurden wie folgt gelöst: • Erfindungsgemäße Verbindung: • Beispiel 1: in 20 mg/ml DMSO
as §1
(§4) Alle drei Substanzen wurden in einer Dosis von 50.000ng/ml auf 2 x 10^7 HepG2 und HCT-8 sowie 2 x 10^6-MDA-MB231 Zellen gegeben. Als Zellkulturmedium wurde 100% (MDA-MB231: 50%) fötales Kälberserum (FCS) verwendet. Zudem wurde bei den Versuchen mit HepG2 und HCT-8 noch 10.000ng/ml O6-Benzylguanin zugesetzt. Für den Versuch wurde die intrazelluläre Konzentration von Ausgangsprodukt und Metaboliten nach 2, 4 und 20 (HepG2), 2 und 3,5 und 20 Stunden (MDA-MB231) und 2,4, 24 und 48 Stunden (HCT-8) Inkubationszeit ermittelt. Alle drei Substanzen zeigten in Kontrollversuchen mit 100% FCS nach 40 Stunden metabolische Stabilität.

MDA-MB231 Zellen = experiment: Intracellular uptake of triazenes in MDA-MB231 cells (Experiment 2); type: in vitro ADME; details: MDA-MB231, 50.000ng/ml, 50% FCS, 2, 3,5 und 20 Stunden
Experimental: as §2, §3, §1, §4

MDA-MB231 = experiment: IC50 of triazenes in MDA-MB231 cell line (Experiment 3); type: cell-based; details: Homo sapiens, MDA-MB-231; IC50 für die MDA-MB231 gemäß Experiment 3; used as incubation concentration for PBC
Excerpt: Die nachfolgenden Experimente 3 und 4 zeigen, dass die erfindungsgemäßen neuen Triazenverbindungen eine vergleichbare Anti-Tumorwirkung (IC50) in zahlreichen Krebszelllinien wie der HepG2 (Leber), HCT8 (Darm), DU-145 (Prostata), MCF-7 und MDA-MB-231 (Brust) und MiaPaca-2 (Bauchspeicheldrüse) bei bis zu 100fach niedrigeren Konzentrationen zeigen als vergleichbare Triazene wie DTIC, TMZ oder Substanzen wie sie in der WO 2009/004060 und der DE 1 7931 1 5 beschrieben sind.
(§5) Verschiedene Triazene wie erfindungsgemäße Verbindungen nach Beispiel 1, DTIC, TMZ sowie Verbindungen nach Präparat 2 und 5 (entsprechend Verbindungen nach Präparat 2 und Beispiel 2a jeweils der WO 2009/004060) sowie Verbindungen nach Beispiel 33 der DE1793115 wurden in DMSO bzw. Wasser gelöst.
Periphäre Blutzellen (PBC) werden jeweils mit der IC50 für die MDA-MB231 gemäß Experiment 3 der entsprechenden Substanzen inkubiert. Es wird gezeigt, dass die erfindungsgemäße Verbindung nach Beispiel 1 nicht mehr DNA-Schädigungen in den PBC erzeugt als eine Negativkontrolle, […]

[3] = test system: drei Pankreaskrebszelllinien; experiment: IC50 of triazenes in three pancreatic cancer cell lines (Experiment 4); type: cell-based
Excerpt: as §5, with “nach Beispiel 2 und 33 der” for “nach Beispiel 33 der”

HL-60 = experiment: Growth inhibition (IC50) in leukaemic HL-60 cells (Experiment 7); type: cell-based; details: for IC50: Homo sapiens, HL-60, 24 Stunden
Excerpt: Hämatologische Zellen (CEM, HL-60) wurden für 24 Stunden mit unterschiedlichen Dosen verschiedener Triazenverbindungen inkubiert, um die IC50 zu bestimmen.

[4] = Formulation trials for intravenous application (Experiment 8); type: physicochemical
Experimental: Um die Testergebnisse aus Experiment 7 in einem in-vivo Xenograft Modell zu bestätigen, wurden Formulierungsversuche mit Verbindungen nach Beispiel 1 sowie der Verbindung nach Beispiel 2 aus DE 1 793 1 15, als den wirksamsten Verbindungen aus Experiment 7, unternommen.
15mg der Verbindung nach Beispiel 1 werden in 30µL DMSO ([…]) gelöst. Diese Stocklösung wird in 270µL 1 M Na2CO3 Lösung gegeben und nur leicht geschwenkt, nicht aber mittels Ultraschallbad behandelt.
Gleichermaßen sollte eine Formulierung für Verbindungen nach Beispiel 2 aus DE 1 7 93 1 15 hergestellt werden. Hier wurden 15µL der Verbindung nach Beispiel 2 vorgelegt. Bei einer Dichte von 1,08g/ml entsprach dies 16,2mg der Verbindung nach Beispiel 2. Dazu wurden 32,4µL DMSO gegeben. […] Sodann wurden 90µL einer frisch hergestellten 1 molaren Na2CO3 Lösung vorgelegt und 10µL der Lösung der Verbindung nach Beispiel 2 hinzugegeben. […] Auch mittels Ultraschallbad konnte keine Auflösung des erzeugten Niederschlags herbeiführen.

Q: For `CN(C)N=Nc1ccc(C(=O)c2ccc(O)cc2)cc1` [Beispiel 1], which Ausgangssubstanz metabolisiert (HepG2 [1]) is on record?
A: Its Ausgangssubstanz metabolisiert is 28%.

Q: What about the “intrazelluläre Konzentration vs. Vergleichssubstanzen” value (HepG2 [2]) of the same compound?
A: Its value is “deutlich schneller und in höheren Konzentrationen intrazellulär nachweisbar”.

Q: And the “intrazelluläre Konzentration vs. Vergleichssubstanzen” value (MDA-MB231 Zellen)?
A: Its value is “deutlich schneller und in höheren Konzentrationen intrazellulär nachweisbar”.

Q: And the IC50 (MDA-MB231)?
A: The IC50 was 27.5 µM.

Q: And the “antitumorale Aktivität (IC50) compared with Vergleichssubstanzen” value [3]?
A: The value was “deutliche Überlegenheit”.

Q: And the “Wachstumshemmung in x-fach niedrigerer Konzentration” value (HL-60; CEM und HL-60, vs. Triazenverbindungen aus WO2009/004060 und Beispiel 33 aus DE 1793115)?
A: Its value is ≤ 100 -fach.

Q: And the IC50 (HL-60; mean of Exp. 1-5, read-out: IC50 Mittelwert)?
A: The IC50 was 16.3 µM.

Q: What about the IC50 (HL-60; read-out: IC50 Exp. 1) of the same compound?
A: Its IC50 is 12.6 µM.

Q: And the IC50 (HL-60; read-out: IC50 Exp. 2)?
A: Its IC50 is 15.2 µM.

Q: And the IC50 (HL-60; read-out: IC50 Exp. 3)?
A: Its IC50 is 24.2 µM.

Q: What about the IC50 (HL-60; read-out: IC50 Exp. 4) of the same compound?
A: The IC50 was 16 µM.

Q: And the IC50 (HL-60; read-out: IC50 Exp. 5)?
A: The IC50 was 13.4 µM.

Q: What about the “Stabilität der gebrauchsfertigen Lösung” value ([4]; 15mg in 30µL DMSO + 270µL 1 M Na2CO3, Raumtemperatur) of the same compound?
A: Its value is “unter Raumtemperatur stabil”.

Q: What about the “Löslichkeit in der Formulierung” value ([4]; DMSO stock solution given into 1 M Na2CO3 Lösung) of the same compound?
A: Its value is “vollständig löst”.

Q: What about the “stabile und verträgliche Formulierung” value ([4]; Lösungsmittel wie Cremophor, PEG400, Tween80, Poloxamer) of the same compound?
A: Its value is “nicht erreicht werden konnte”.

— patent EP2557075A1, “New triazene compounds for treating cancer” (Trin Therapeutics GmbH, priority 2011, dated 2013)
